Source: US20230174608A1, “Polypeptide Derivative Having Dual Receptor Agonistic Action and Use Thereof” (TIANJIN INSTITUTE OF PHARMACEUTICAL RESEARCH CO., LTD., priority 2020, published 2023)
Where a SMILES comes first, the peptide text is derived from it.

Legend:
GCGR = molecular target: T1, GCGR (Homo sapiens, UniProt P47871); assay: GC receptor-mediated cAMP production in vitro; assay type: cell-based; settings: HEK293 cell line stably expressing GCGR
T1 construct: expressed in transfected cells
T1 sequence (P47871 26-477, species assumed): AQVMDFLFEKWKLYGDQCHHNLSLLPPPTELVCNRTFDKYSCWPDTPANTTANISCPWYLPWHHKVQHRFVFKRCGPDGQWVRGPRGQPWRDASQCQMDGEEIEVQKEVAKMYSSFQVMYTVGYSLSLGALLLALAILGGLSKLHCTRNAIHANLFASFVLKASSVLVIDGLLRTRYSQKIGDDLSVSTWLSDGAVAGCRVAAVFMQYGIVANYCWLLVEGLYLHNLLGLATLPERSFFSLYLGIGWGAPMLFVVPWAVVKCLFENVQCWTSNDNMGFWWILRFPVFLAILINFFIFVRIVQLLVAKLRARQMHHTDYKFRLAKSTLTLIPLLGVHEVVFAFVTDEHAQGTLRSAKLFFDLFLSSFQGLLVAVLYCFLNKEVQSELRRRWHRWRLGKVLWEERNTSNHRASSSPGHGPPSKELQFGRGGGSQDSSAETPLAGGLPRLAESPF
Summary of the method: (§1)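 HEK293 cells stably expressing human GLP-1R or GCGR are stimulated with compound for 30 min in the dark in serum-free medium with 0.5 mM IBMX, with test dilutions spanning 1 μM down to 10^−3 nM. cAMP is detected after a 60 min room-temperature reaction as the 665/615 nm ratio.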

[1] = test system: glucose loaded normal mice; assay: Glucose loading test on normal mice after single administration; assay type: in vivo, Kunming mice; settings: for Blood glucose reduction rate (%) / Blood glucose level after glucose loading: 30 nmol/kg single dose; for Blood glucose reduction rate (%): after glucose loading, versus model control group; for Blood glucose level after glucose loading: glucose 2.5 g/kg intragastric 60 min after administration, measured 30 min after loading; for Blood glucose level after glucose loading / Fasting blood glucose level: n=5; for Fasting blood glucose level: normal mice fasted 6 h, 30 nmol/kg group
Summary of the method: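 Male Kunming mice (20-22 g), 5 per group, fasted 6 h, received compound or semaglutide at 30 nmol/kg or saline. Glucose 2.5 g/kg given intragastrically 60 min post-dose; blood glucose measured 30 min after glucose loading.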

GLP-1R = molecular target: T2, GLP-1R (Homo sapiens, UniProt P43220); assay: GLP-1 receptor-mediated cAMP production in vitro; assay type: cell-based; settings: HEK293 cell line stably expressing GLP-1R
T2 construct: expressed in transfected cells
T2 sequence (P43220 24-463, species assumed): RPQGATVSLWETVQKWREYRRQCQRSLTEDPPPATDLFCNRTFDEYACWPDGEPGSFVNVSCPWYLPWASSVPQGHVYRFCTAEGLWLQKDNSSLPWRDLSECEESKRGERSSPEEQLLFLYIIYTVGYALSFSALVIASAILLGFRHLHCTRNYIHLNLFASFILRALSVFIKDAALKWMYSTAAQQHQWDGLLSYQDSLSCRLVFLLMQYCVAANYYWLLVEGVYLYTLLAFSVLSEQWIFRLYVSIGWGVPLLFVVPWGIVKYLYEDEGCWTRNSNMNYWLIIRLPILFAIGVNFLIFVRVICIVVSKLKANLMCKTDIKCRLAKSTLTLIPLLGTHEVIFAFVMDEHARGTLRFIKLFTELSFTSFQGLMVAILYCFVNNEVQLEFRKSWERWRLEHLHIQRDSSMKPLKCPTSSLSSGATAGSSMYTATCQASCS
Summary of the method: as §1

[2] = test system: diet-induced obesity (DIO) mice; assay: DIO model mice, weight after 2 weeks of administration; assay type: in vivo, C57BL/6N mice; settings: 30 nmol/kg s.c. once a day, 14 days
Text: Method: C57BL/6N mice were fed with H10060 high-fat diets to obtain diet-induced obesity (DIO) models, and mice in a control group (n=5) were fed with standard diets. One day before the first administration, the mice in the model group were randomly divided into 6 groups according to their weights (within a range of 40.5-50.5 g), i.e., a model control group, a positive control group, and test compound groups (dgc003, dgc004, dgc010, and dgc017), respectively, 5 mice in each group, which were administered once a day by subcutaneous injection. Saline was subcutaneously injected into each mouse in the blank control group and the model control group every day. The administration was performed for 14 days. The positive control drug and the test compounds were administered at a dose of 30 nmol/kg, and the administration volume for each group was 0.005 mL/g weight. The mice were weighed before each administration, and 72-h food intake was weighed every three days.

EC50 (GCGR) [nM]	EC50 (GLP-1R) [nM]	Compound	Blood glucose reduction rate (%) [1] [%]	Blood glucose level after glucose loading [1] [mmol/L]	Fasting blood glucose level [1] [mmol/L]	Weight decreasing rate by the last administration [2] [%]
0.614	0.537	CCCCCCCCCCCCCCCC(=O)N[C@@H](CCC(=O)N[C@@H](CCC(=O)NCCCC[C@H](NC(=O)[C@H](C)NC(=O)[C@H](C)NC(=O)[C@H](CCCNC(=N)N)NC(=O)[C@H](CCC(=O)O)NC(=O)[C@H](CCC(=O)O)NC(=O)[C@H](CC(C)C)NC(=O)[C@H](Cc1ccc(O)cc1)NC(=O)[C@H](CCCCN)NC(=O)[C@H](CO)NC(=O)[C@H](Cc1ccc(O)cc1)NC(=O)[C@H](CC(=O)O)NC(=O)[C@H](CO)NC(=O)[C@@H](NC(=O)[C@H](Cc1ccccc1)NC(=O)[C@@H](NC(=O)CNC(=O)[C@H](CCC(N)=O)NC(=O)C(C)(C)NC(=O)[C@@H](N)Cc1c[nH]cn1)[C@@H](C)O)[C@@H](C)O)C(=O)N[C@@H](CCC(=O)O)C(=O)N[C@@H](Cc1ccccc1)C(=O)N[C@H](C(=O)N[C@@H](C)C(=O)N[C@@H](Cc1c[nH]c2ccccc12)C(=O)N[C@@H](CC(C)C)C(=O)N[C@@H](CCC(=O)O)C(=O)N[C@@H](CO)C(=O)NCC(=O)NCC(N)=O)[C@@H](C)CC)C(=O)O)C(=O)O [dgc010] (HELM PEPTIDE1{H.[Aib].Q.G.T.F.T.S.D.Y.S.K.Y.L.E.E.R.A.A.K.E.F.I.A.W.L.E.S.G.G.[am]}|PEPTIDE2{[CCCCCCCCCCCCCCCC(=O)[*:2]].[gGlu].[gGlu]}$PEPTIDE1,PEPTIDE2,20:R3-3:R2$$$V2.0; N-terminus assumed)	52.35	8.10 ± 1.13	3.78 ± 0.84	16.4
3.95	0.627	CCCCCCCCCCCCCCCC(=O)N[C@@H](CCC(=O)NCCCC[C@H](NC(=O)[C@H](C)NC(=O)[C@H](C)NC(=O)[C@H](CCCCN)NC(=O)[C@H](CCC(=O)O)NC(=O)[C@H](CC(=O)O)NC(=O)[C@H](CC(C)C)NC(=O)[C@H](Cc1ccc(O)cc1)NC(=O)[C@H](CCCCN)NC(=O)[C@H](CO)NC(=O)[C@H](Cc1ccc(O)cc1)NC(=O)[C@H](CC(=O)O)NC(=O)[C@H](CO)NC(=O)[C@@H](NC(=O)[C@H](Cc1ccccc1)NC(=O)[C@@H](NC(=O)CNC(=O)[C@H](CCC(N)=O)NC(=O)C(C)(C)NC(=O)[C@@H](N)Cc1c[nH]cn1)[C@@H](C)O)[C@@H](C)O)C(=O)N[C@@H](CCC(=O)O)C(=O)N[C@@H](Cc1ccccc1)C(=O)N[C@H](C(=O)N[C@@H](C)C(=O)N[C@@H](Cc1c[nH]c2ccccc12)C(=O)N[C@@H](CC(C)C)C(=O)N[C@@H](CCC(=O)O)C(=O)NCC(=O)NCC(N)=O)[C@@H](C)CC)C(=O)O [dgc017] (HELM PEPTIDE1{H.[Aib].Q.G.T.F.T.S.D.Y.S.K.Y.L.D.E.K.A.A.K.E.F.I.A.W.L.E.G.G.[am]}|PEPTIDE2{[CCCCCCCCCCCCCCCC(=O)[*:2]].[gGlu]}$PEPTIDE1,PEPTIDE2,20:R3-2:R2$$$V2.0; N-terminus assumed)	39.06	10.36 ± 1.87	3.72 ± 0.37	15.9
1.04	0.291	CCCCCCCCCCCCCCCC(=O)N[C@@H](CCC(=O)NCCCC[C@H](NC(=O)[C@H](C)NC(=O)[C@H](C)NC(=O)[C@H](CCCNC(=N)N)NC(=O)[C@H](CCC(=O)O)NC(=O)[C@H](CC(=O)O)NC(=O)[C@H](CC(C)C)NC(=O)[C@H](Cc1ccc(O)cc1)NC(=O)[C@H](CCCCN)NC(=O)[C@H](CO)NC(=O)[C@H](Cc1ccc(O)cc1)NC(=O)[C@H](CC(=O)O)NC(=O)[C@H](CO)NC(=O)[C@@H](NC(=O)[C@H](Cc1ccccc1)NC(=O)[C@@H](NC(=O)CNC(=O)[C@H](CCC(N)=O)NC(=O)C(C)(C)NC(=O)[C@@H](N)Cc1c[nH]cn1)[C@@H](C)O)[C@@H](C)O)C(=O)N[C@@H](CCC(=O)O)C(=O)N[C@@H](Cc1ccccc1)C(=O)N[C@H](C(=O)N[C@@H](C)C(=O)N[C@@H](Cc1c[nH]c2ccccc12)C(=O)N[C@@H](CC(C)C)C(=O)N[C@@H](CCC(=O)O)C(=O)N[C@@H](C)C(=O)NCC(=O)NCC(N)=O)[C@@H](C)CC)C(=O)O [dgc003] (HELM PEPTIDE1{H.[Aib].Q.G.T.F.T.S.D.Y.S.K.Y.L.D.E.R.A.A.K.E.F.I.A.W.L.E.A.G.G.[am]}|PEPTIDE2{[CCCCCCCCCCCCCCCC(=O)[*:2]].[gGlu]}$PEPTIDE1,PEPTIDE2,20:R3-2:R2$$$V2.0; N-terminus assumed)	48.12	8.82 ± 1.63	4.20 ± 0.97	16.7
